Data from PubChem BioAssay (NCI).
Several values for one entry are separate records, joined by “and”; a condition that tells them apart may be missing. Equal entries are not always repeated.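 These data come from cells grown in 96-well plates and exposed to compound for 48 hours at five concentrations. GI50 is the concentration that inhibits growth by half. TGI: concentration producing complete growth inhibition.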

Experiments:
Assay in all cases: inhibition of tumour cell growth, NCI panel, 48 h
[1] = tested on: A498 renal
[2] = tested on: ACHN renal
[3] = tested on: HCC-2998 colon
[4] = tested on: LOX IMVI melanoma
[5] = tested on: SK-MEL-28 melanoma
[6] = tested on: SK-MEL-5 melanoma
[7] = tested on: SK-OV-3 ovarian
[8] = tested on: U251 CNS

Structure (SMILES) | GI50 [1] | TGI [1] | GI50 [2] | TGI [2] | GI50 [3] | TGI [3] | GI50 [4] | TGI [4] | GI50 [5] | TGI [5] | GI50 [6] | TGI [6] | GI50 [7] | TGI [7] | GI50 [8] | TGI [8]
N#Cc1c(N)nn(C(=O)c2ccc(NC(=O)c3ccccn3)cc2)c1-c1ccc(Cl)cc1 | 15.1 µM | > 100 µM | 3.48 µM | 15.5 µM | 3.68 µM | > 100 µM | 5.75 µM | > 100 µM | 5.68 µM | > 100 µM | 7.15 µM | > 100 µM | 5.23 µM | 34.9 µM | 2.33 µM | 5.75 µM
Cc1cc2c(-c3nc4ccccc4[nH]3)c(O)c(O)cc2c(O)c1-c1c(C)cc2c(-c3nc4ccccc4[nH]3)c(O)c(O)cc2c1O | 0.00875 µM | 0.0374 µM | 0.0292 µM | 0.697 µM | 0.0362 µM | 8.65 µM |  |  | 0.0976 µM | 15.8 µM |  |  | 0.045 µM | 0.283 µM | 0.0174 µM | 
Cc1ncc(C(=O)Nc2ccc(CN3CCN(C)CC3)c(C(F)(F)F)c2)cc1C#Cc1c(N)ncc2ccc(C#N)cc12 | 1.21 µM | 4.55 µM | 0.293 µM | 3.35 µM | 4.96 µM | > 40.9 µM | 0.092 µM | 0.791 µM | 0.0676 µM | 1.91 µM | 1.1 µM | 8.59 µM | 1.7 µM | 10.9 µM | 5.8 µM | 14.4 µM
CCOP1(=O)OCC2OC(n3cnc4c(N)ncnc43)C(O)C2O1 (stereo not given) |  | > 100 µM |  | > 100 µM |  |  |  | > 100 µM |  | > 100 µM |  | > 100 µM |  | > 100 µM |  | > 100 µM
COC1CC(OC2OC(CO)C(O)C(O)C2O)/C(=C\C#N)C(O)C1OC (stereo not given) |  | > 100 µM |  | > 100 µM |  | > 100 µM |  | > 100 µM |  | > 100 µM |  | > 100 µM |  | > 100 µM |  | > 100 µM
NC(=O)C/C=C/CC(N)=O |  | > 100 µM |  | > 100 µM |  | > 100 µM |  | > 100 µM |  | > 100 µM |  | > 100 µM |  | > 100 µM |  | > 100 µM
CCc1cc(C(N)=O)ccc1-n1nc(C(C)C)c2c(-n3cnc(-c4cnn(C)c4)c3)ccnc21 | 4.99 µM | > 100 µM | 1.62 µM | > 100 µM | 3.39 µM | > 100 µM | 0.913 µM | 5.56 µM | 1.22 µM | > 100 µM | 3.98 µM | > 100 µM | 0.492 µM | > 100 µM | 3.82 µM | > 100 µM
O=P(O)(O)OC1C(OP(=O)(O)O)C(OP(=O)(O)O)C(OP(=O)(O)O)C(OP(=O)(O)O)C1OP(=O)(O)O (stereo not given) | > 500 µM and 1190 µM | > 2000 µM | > 1700 µM | > 2000 µM | > 2000 µM | > 2000 µM | > 2000 µM | > 2000 µM | > 2000 µM | > 2000 µM | > 1560 µM | > 2000 µM | > 2000 µM | > 2000 µM | > 2000 µM | > 2000 µM
Cn1ccnc1CCc1ccc(F)cc1F |  | > 100 µM |  | > 100 µM |  | > 100 µM |  | > 100 µM |  | > 100 µM |  | > 100 µM |  | > 100 µM |  | > 100 µM
COc1ccc(C2SC(N)=Nc3c2c(C)nn3C(=O)c2ccncc2)cc1 (stereo not given) |  | > 100 µM |  | > 100 µM |  |  |  | > 100 µM |  | > 100 µM |  | > 100 µM |  | > 100 µM |  | > 100 µM
COc1ccccc1/C=C1\COc2ccc(O)c(O)c2C1=O | 3.4 µM | 18 µM | 1.31 µM | 2.64 µM | 1.76 µM | 3.25 µM | 1.26 µM | 2.66 µM | 1.91 µM | 4.44 µM | 1.56 µM | 3.18 µM | 4.68 µM | > 100 µM | 1.57 µM | 3.99 µM
CCCCNC(=S)Nn1c(-c2ccccc2)nc2ccccc2c1=O |  | > 100 µM |  | > 100 µM |  |  |  | > 100 µM |  | > 100 µM |  | > 100 µM |  | > 100 µM |  | > 100 µM
CC1(CCCC2(C)CCNC2=O)OCCO1 (stereo not given) |  | > 10 µM |  | > 10 µM |  | > 10 µM |  | > 10 µM |  | > 10 µM |  | > 10 µM |  | > 10 µM |  | > 10 µM
COc1ccc(C(=O)/C=C/c2ccc(Cl)cc2)cc1S(N)(=O)=O | 10.4 µM | 22.1 µM | 1.94 µM | 4.12 µM | 1.78 µM | 3.65 µM | 1.28 µM | 2.65 µM | 3.24 µM | 12.7 µM | 5.69 µM | 18 µM | 5.96 µM | 18.6 µM | 1.96 µM | 4.27 µM
Clc1ccc(Cl)c(N/N=C\c2c[nH]c3ccccc23)c1 | 14.5 µM | 29.6 µM | 12 µM | 32.6 µM | 13.6 µM | 29.9 µM | 4.21 µM | 74.7 µM |  |  | 10 µM | 23.1 µM | 12.8 µM | 27.2 µM | 22 µM | > 100 µM
COc1ccc(CN2CCc3c(Cl)nc(N)nc3C2=O)c(OC)c1 | 23.7 µM | 81.5 µM | 20.4 µM | 48.5 µM | 17.3 µM | 31.6 µM | 13.2 µM | 26.7 µM | 15.7 µM | 29.4 µM | 13.5 µM | 26.7 µM | 24.2 µM | 88 µM | 14.6 µM | 27.9 µM
O=c1c(Cl)nsnc1Cl |  | 28.8 µM |  | 14.7 µM |  | 35.2 µM |  | 27.2 µM |  | 35.1 µM |  | 32.8 µM |  | 35 µM |  | 35.9 µM
COc1cc([C@@H]2c3cc4c(cc3[C@H](OC3OC5COC(c6ccccc6)OC5C(O)C3O)[C@H]3COC(=O)[C@H]23)OCO4)cc(OC)c1OC (stereo not given in full) | 0.364 µM | 3.4 µM | 0.596 µM | 12.7 µM | 0.367 µM | 4.7 µM | 0.427 µM | 2.84 µM | 0.71 µM | 3.06 µM | 0.242 µM | 0.715 µM | 0.441 µM | 18.5 µM | 0.34 µM | 2.02 µM
O=c1[nH]nc(-c2ccccc2)c(-c2ccccc2)c1-n1nc(-c2ccccc2)c2ccccc2c1=O |  | > 100 µM |  | > 100 µM |  | > 100 µM |  |  |  | > 100 µM |  | > 100 µM |  | > 100 µM |  | > 100 µM
C#Cc1cccc(NC(=O)Nc2ccccc2NC(=O)CCl)c1 |  |  | 14.5 µM | 30.6 µM | 15.3 µM | 29.8 µM | 13.3 µM | 25.6 µM | 23.7 µM | > 82.5 µM | 14.2 µM | 26.9 µM | > 82.5 µM | > 82.5 µM | 15.4 µM | 33.1 µM
